Assays:
Assay in all cases: Ceftazidime MIC with fixed concentration of BLI
Type in all cases: cell-based
[1] = system: CF1000 Citrobacter freundii Hyper AmpC expression
Procedure: (§1) Next, ceftazidime potentiation activity of several cyclic boronic acid ester derivatives was tested using a larger panel of strains expressing β-lactamase hydrolyzing enzymes. Ceftazidime MICs were determined alone and in the presence of fixed concentrations of various cyclic boronic acid ester derivatives.

[2] = system: EC1014 Escherichia coli DHA-1; details: EC1014 DHA-1
Procedure: as §1

[3] = system: ECL1002 Enterobacter cloacae Hyper AmpC expression
Procedure: as §1

[4] = system: EC1006 Escherichia coli FOX-5; details: EC1006 FOX-5
Procedure: as §1

[5] = system: AB1054 Acinetobacter baumannii OXA-23; details: AB1054 OXA-23
Procedure: as §1

[6] = system: KP1007 Klebsiella pneumoniae OXA-10; details: KP1007 OXA-10
Procedure: as §1

[7] = system: KP1010 Klebsiella pneumoniae SHV-12; details: KP1010 SHV-12
Procedure: as §1

[8] = system: ec308 Escherichia coli SHV-5; details: ec308 SHV-5
Procedure: as §1

[9] = system: EC1008 Escherichia coli CTX-M3
Procedure: as §1

[10] = system: KP1005 Klebsiella pneumoniae CTX-M-14; details: KP1005 CTX-M-14
Procedure: as §1

[11] = system: ec310 Escherichia coli ACT-1; details: ec310 ACT-1
Procedure: as §1

[12] = system: ec302 Escherichia coli TEM-10; details: ec302 TEM-10
Procedure: as §1

[13] = system: KP1009 Klebsiella pneumoniae CTX-M-15; details: KP1009 CTX-M-15
Procedure: as §1

[14] = system: EC1010 Escherichia coli CMY-6; details: EC1010 CMY-6
Procedure: as §1

[15] = system: KX1000 Klebsiella oxytoca OXA-2; details: KX1000 OXA-2
Procedure: as §1

[16] = system: ec303 Escherichia coli TEM-12; details: ec303 TEM-12
Procedure: as §1

[17] = system: pa1063 Pseudomonas aeruginosa GES-1; details: pa1063 GES-1
Procedure: as §1

[18] = system: ec300 Escherichia coli TEM-3; details: ec300 TEM-3
Procedure: as §1

[19] = system: KP1008 Klebsiella pneumoniae KPC-2; details: KP1008 KPC-2
Procedure: as §1

[20] = system: AB1057 Acinetobacter baumannii OXA-58; details: AB1057 OXA-58
Procedure: as §1

[21] = system: PAM2035 Pseudomonas aeruginosa ampC mexA:tet
Procedure: as §1

[22] = system: ec306 Escherichia coli SHV-2; details: ec306 SHV-2
Procedure: as §1

[23] = system: KP1012 Klebsiella pneumoniae SHV-18; details: KP1012 SHV-18
Procedure: as §1

[24] = system: EC1011 Escherichia coli TEM-26; details: EC1011 TEM-26
Procedure: as §1

[25] = system: EC1004 Escherichia coli CMY-2; details: EC1004 CMY-2
Procedure: as §1

[26] = system: EC1012 Escherichia coli TEM-12; details: EC1012 TEM-12
Procedure: as §1

[27] = system: ec301 Escherichia coli TEM-6; details: ec301 TEM-6
Procedure: as §1

[28] = system: ec309 Escherichia coli MIR-1; details: ec309 MIR-1
Procedure: as §1

[29] = system: KP1004 Klebsiella pneumoniae KPC-2; details: KP1004 KPC-2
Procedure: as §1

[30] = system: PAM2005 Pseudomonas aeruginosa ampC
Procedure: as §1

[31] = system: EC1009 Escherichia coli TEM-10; details: EC1009 TEM-10
Procedure: as §1

[32] = Escherichia coli, read-out: Ceftazidime MIC Alone
[33] = Acinetobacter baumannii, read-out: Ceftazidime MIC Alone
[34] = Klebsiella pneumoniae, read-out: Ceftazidime MIC Alone
[35] = Pseudomonas aeruginosa, read-out: Ceftazidime MIC Alone

Q: With `CC(C)(O/N=C(\C(=O)N[C@@H]1C(=O)N2C(C(=O)[O-])=C(C[n+]3ccccc3)CS[C@H]12)c1csc(N)n1)C(=O)O` [Ceftazidime, reference compound] as the compound, how does the MIC ([1]; Citrobacter freundii, read-out: Ceftazidime MIC Alone) read?
A: > 8 µg/mL

Q: What about the MIC [2, 32] of the same compound?
A: > 8 µg/mL

Q: What about the MIC ([3]; Enterobacter cloacae, read-out: Ceftazidime MIC Alone) of the same compound?
A: > 8 µg/mL

Q: And the MIC [4, 32]?
A: > 8 µg/mL

Q: What about the MIC [5, 33] of the same compound?
A: > 8 µg/mL

Q: What about the MIC [6, 34] of the same compound?
A: > 8 µg/mL

Q: What about the MIC [7, 34] of the same compound?
A: > 8 µg/mL

Q: What about the MIC [8, 32] of the same compound?
A: > 8 µg/mL

Q: And the MIC [9, 32]?
A: > 8 µg/mL

Q: And the MIC [10, 34]?
A: > 8 µg/mL

Q: And the MIC [11, 32]?
A: > 8 µg/mL

Q: And the MIC [12, 32]?
A: > 8 µg/mL

Q: What about the MIC [13, 34] of the same compound?
A: > 8 µg/mL

Q: What about the MIC [14, 32] of the same compound?
A: > 8 µg/mL

Q: What about the MIC ([15]; Klebsiella oxytoca, read-out: Ceftazidime MIC Alone) of the same compound?
A: > 8 µg/mL

Q: And the MIC [16, 32]?
A: > 8 µg/mL

Q: And the MIC [17, 35]?
A: > 8 µg/mL

Q: What about the MIC [18, 32] of the same compound?
A: > 8 µg/mL

Q: What about the MIC [19, 34] of the same compound?
A: 1 to 8 µg/mL

Q: What about the MIC [20, 33] of the same compound?
A: > 8 µg/mL

Q: And the MIC [21, 35]?
A: > 8 µg/mL

Q: What about the MIC [22, 32] of the same compound?
A: > 8 µg/mL

Q: What about the MIC [23, 34] of the same compound?
A: > 8 µg/mL

Q: What about the MIC [24, 32] of the same compound?
A: > 8 µg/mL

Q: And the MIC [25, 32]?
A: > 8 µg/mL

Q: What about the MIC [26, 32] of the same compound?
A: > 8 µg/mL

Q: What about the MIC [27, 32] of the same compound?
A: > 8 µg/mL

Q: And the MIC [28, 32]?
A: > 8 µg/mL

Q: And the MIC [29, 34]?
A: > 8 µg/mL

Q: What about the MIC [30, 35] of the same compound?
A: > 8 µg/mL

Q: And the MIC [31, 32]?
A: > 8 µg/mL

Q: How did the “Ceftazidime MIC with cyclic boronic acid ester derivative” value (“Ceftazidime MIC” for short) ([1]; derivative at 10 μg/mL) turn out when `CC(=O)N[C@H]1CCC(CC(=O)O)OB1O` (stereo partly drawn) [Compound 3, 2-((3R)-3-acetamido-2-hydroxy-1,2-oxaborinan-6-yl)acetic acid] was run?
A: Z (MIC of greater than 8 μg/mL)

Q: What about the “Ceftazidime MIC” value ([2]; derivative at 10 μg/mL) of the same compound?
A: Y (MIC of greater than 1 μg/mL to 8 μg/mL)

Q: What about the “Ceftazidime MIC” value ([3]; derivative at 10 μg/mL) of the same compound?
A: Z (MIC of greater than 8 μg/mL)

Q: What about the “Ceftazidime MIC” value ([4]; derivative at 10 μg/mL) of the same compound?
A: Y (MIC of greater than 1 μg/mL to 8 μg/mL)

Q: And the “Ceftazidime MIC” value ([5]; derivative at 10 μg/mL)?
A: Z (MIC of greater than 8 μg/mL)

Q: What about the “Ceftazidime MIC” value ([6]; derivative at 10 μg/mL) of the same compound?
A: Z (MIC of greater than 8 μg/mL)

Q: And the “Ceftazidime MIC” value ([7]; derivative at 10 μg/mL)?
A: Z (MIC of greater than 8 μg/mL)

Q: What about the “Ceftazidime MIC” value ([8]; derivative at 10 μg/mL) of the same compound?
A: Z (MIC of greater than 8 μg/mL)

Q: And the “Ceftazidime MIC” value ([9]; derivative at 10 μg/mL)?
A: Y (MIC of greater than 1 μg/mL to 8 μg/mL)

Q: What about the “Ceftazidime MIC” value ([10]; derivative at 10 μg/mL) of the same compound?
A: Z (MIC of greater than 8 μg/mL)

Q: What about the “Ceftazidime MIC” value ([11]; derivative at 10 μg/mL) of the same compound?
A: Y (MIC of greater than 1 μg/mL to 8 μg/mL)

Q: What about the “Ceftazidime MIC” value ([12]; derivative at 10 μg/mL) of the same compound?
A: Z (MIC of greater than 8 μg/mL)

Q: What about the “Ceftazidime MIC” value ([13]; derivative at 10 μg/mL) of the same compound?
A: Z (MIC of greater than 8 μg/mL)

Q: And the “Ceftazidime MIC” value ([14]; derivative at 10 μg/mL)?
A: Z (MIC of greater than 8 μg/mL)

Q: And the “Ceftazidime MIC” value ([15]; derivative at 10 μg/mL)?
A: Z (MIC of greater than 8 μg/mL)

Q: What about the “Ceftazidime MIC” value ([16]; derivative at 10 μg/mL) of the same compound?
A: Z (MIC of greater than 8 μg/mL)

Q: What about the “Ceftazidime MIC” value ([17]; derivative at 10 μg/mL) of the same compound?
A: Z (MIC of greater than 8 μg/mL)

Q: And the “Ceftazidime MIC” value ([18]; derivative at 10 μg/mL)?
A: Z (MIC of greater than 8 μg/mL)

Q: What about the “Ceftazidime MIC” value ([19]; derivative at 10 μg/mL) of the same compound?
A: X (MIC of 1 μg/mL or less)

Q: And the “Ceftazidime MIC” value ([20]; derivative at 10 μg/mL)?
A: Z (MIC of greater than 8 μg/mL)

Q: What about the “Ceftazidime MIC” value ([21]; derivative at 10 μg/mL) of the same compound?
A: Z (MIC of greater than 8 μg/mL)

Q: And the “Ceftazidime MIC” value ([22]; derivative at 10 μg/mL)?
A: Z (MIC of greater than 8 μg/mL)

Q: What about the “Ceftazidime MIC” value ([23]; derivative at 10 μg/mL) of the same compound?
A: Z (MIC of greater than 8 μg/mL)

Q: What about the “Ceftazidime MIC” value ([24]; derivative at 10 μg/mL) of the same compound?
A: Z (MIC of greater than 8 μg/mL)

Q: And the “Ceftazidime MIC” value ([25]; derivative at 10 μg/mL)?
A: Y (MIC of greater than 1 μg/mL to 8 μg/mL)

Q: And the “Ceftazidime MIC” value ([26]; derivative at 10 μg/mL)?
A: Z (MIC of greater than 8 μg/mL)

Q: What about the “Ceftazidime MIC” value ([27]; derivative at 10 μg/mL) of the same compound?
A: Z (MIC of greater than 8 μg/mL)

Q: And the “Ceftazidime MIC” value ([28]; derivative at 10 μg/mL)?
A: Y (MIC of greater than 1 μg/mL to 8 μg/mL)

Q: And the “Ceftazidime MIC” value ([29]; derivative at 10 μg/mL)?
A: Y (MIC of greater than 1 μg/mL to 8 μg/mL)

Q: What about the “Ceftazidime MIC” value ([30]; derivative at 10 μg/mL) of the same compound?
A: Z (MIC of greater than 8 μg/mL)

Q: And the “Ceftazidime MIC” value ([31]; derivative at 10 μg/mL)?
A: Z (MIC of greater than 8 μg/mL)

Source: patent US11090319B2, “Therapeutic uses of pharmaceutical compositions comprising cyclic boronic acid ester derivatives” (Melinta Subsidiary Corp., priority 2010, dated 2021)
